The text below walks through data of ChEMBL document CHEMBL1142398, “Chemical stability of the peroxide bond enables diversified synthesis of potent tetraoxane antimalarials” (J Med Chem, 2008).

One may read the IC50 as the concentration that inhibits the measured activity by half. The low end stands for inhibition by little substance, the high end for a need for much substance. The term IC90 denotes the point of the concentration-response curve where the effect stands at 90%. A higher IC90 goes with weaker potency. One may read the half-life as the time in which the quantity being followed falls by half.

Data set [1] deals with Plasmodium falciparum. Kind of data set: microbe, parasite or virus in culture. As to conditions: D6.
Description: Antimalarial activity against Plasmodium falciparum D6
Data set [2] concerns Plasmodium falciparum. Put plainly: microbe, parasite or virus in culture. As to conditions: W2.
Description: Antimalarial activity against Plasmodium falciparum W2
Data set [3] deals with Plasmodium falciparum. Put plainly: microbe, parasite or virus in culture. The settings on record: TM91C235.
Description: Antimalarial activity against multidrug-resistant Plasmodium falciparum TM91C235
Data set [4] is described as follows: Metabolic stability assessed as half life in human liver microsomes. Format: ADME, Microsome. (In general: Liver microsomes are a subcellular fraction often used to study metabolism.)
Data set [5] in a line: Metabolic stability assessed as half life in mouse liver microsomes. The data set is classed as ADME, Microsome.
Data set [6] deals with Plasmodium berghei. Put plainly: Antimalarial activity against Plasmodium berghei KBG173 infected CD1 mice (Mus musculus) at 300 mg/kg/day subcutaneous dose as survival time after 3-5 days. Format: functional.
Data set [7] relates to Plasmodium berghei. Kind of data set: Antimalarial activity against Plasmodium berghei KBG173 infected CD1 mice (Mus musculus) at 150 mg/kg/day subcutaneous dose as survival time after 3-5 days. Format: functional.
Data set [8] has as its system Plasmodium berghei. Put plainly: Antimalarial activity against Plasmodium berghei KBG173 infected CD1 mice (Mus musculus) at 37.5 mg/kg/day subcutaneous dose as survival time after 3-5 days. Format: functional.
Data set [9] has as its system Plasmodium berghei. Kind of data set: Antimalarial activity against Plasmodium berghei KBG173 infected CD1 mice (Mus musculus) at 9.3 mg/kg/day subcutaneous dose as survival time after 3-5 days. Format: functional.

With `COC(=O)CC[C@@H](C)[C@H]1CC[C@H]2[C@@H]3[C@H](OC(C)=O)C[C@@H]4CC5(CC[C@]4(C)[C@H]3C[C@H](OC(C)=O)[C@]12C)OOC1(CCCCC1)OO5`, the IC50 in the data set on Plasmodium falciparum [1] was found to be 21.5 nM; in the data set on Plasmodium falciparum [2] it was 17 nM.
For `COC(=O)C1CCC2(CC1)OOC1(CCCCC1)OO2`, the IC50 in the data set on Plasmodium falciparum [1] worked out at 29.2 nM; with Plasmodium falciparum [2] it was 40.4 nM; in the data set with Plasmodium falciparum [3], 27 nM. The results for the IC90 in the data set with Plasmodium falciparum [1], in the data set with Plasmodium falciparum [2] and in the data set with Plasmodium falciparum [3] were 83.9 nM, 62.5 nM and 110 nM, respectively.
On to `CC(=O)O[C@H]1C[C@H]2[C@@H]([C@H](OC(C)=O)C[C@@H]3CC4(CC[C@@]32C)OOC2(CCCCC2)OO4)[C@@H]2CC[C@H]([C@H](C)CCCO)[C@@]12C`, for which the IC50 with Plasmodium falciparum [1] stood at 15.6 nM; in the data set on Plasmodium falciparum [2], 9.77 nM; in the data set on Plasmodium falciparum [3], 18.1 nM. The figures for the IC90 with Plasmodium falciparum [1], in the data set with Plasmodium falciparum [2] and in the data set on Plasmodium falciparum [3] were 28.7 nM, 24.2 nM and 27.2 nM, respectively.
As for `CC(=O)OCCC[C@@H](C)[C@H]1CC[C@H]2[C@@H]3[C@H](OC(C)=O)C[C@@H]4CC5(CC[C@]4(C)[C@H]3C[C@H](OC(C)=O)[C@]12C)OOC1(CCCCC1)OO5`, the IC50 worked out at 15.9 nM in the data set with Plasmodium falciparum [1], 11.6 nM in the data set with Plasmodium falciparum [2] and 19.2 nM with Plasmodium falciparum [3]. The IC90 was 28.4 nM in the data set with Plasmodium falciparum [1], 26.3 nM in the data set on Plasmodium falciparum [2] and 29.3 nM in the data set on Plasmodium falciparum [3].
In the case of `C[C@@H]1CC[C@H]2[C@@H](C)C(=O)O[C@@H]3O[C@@]4(C)CC[C@@H]1[C@]32OO4` [ARTEMISININ], the IC50 in the data set on Plasmodium falciparum [1] stood at 9 nM; in the data set with Plasmodium falciparum [2], 6.7 nM; in the data set with Plasmodium falciparum [3] it was 13 nM. Besides, the IC90 in the data set on Plasmodium falciparum [1] is 12.8 nM; with Plasmodium falciparum [2], 11.5 nM; with Plasmodium falciparum [3] it was 17.4 nM.
Consider `CC(C)NCC1CCC2(CC1)OOC1(CCCCC1)OO2`, for which the half-life in data set [4] was 38.7 min; in data set [5] it was 9.9 min. For the same compound, the Survival is 23.2 days with Plasmodium berghei [6], 23.6 days in the data set on Plasmodium berghei [7], 18.2 days in the data set on Plasmodium berghei [8] and 11.8 days with Plasmodium berghei [9]. Further, the IC50 with Plasmodium falciparum [1] came to 9.4 nM; in the data set with Plasmodium falciparum [2] it was 7.54 nM; in the data set with Plasmodium falciparum [3] it was 9.27 nM. The results for the IC90 in the data set with Plasmodium falciparum [1], with Plasmodium falciparum [2] and with Plasmodium falciparum [3] were 14.5 nM, 22.9 nM and 16.7 nM, respectively.
In the case of `CC(=O)O[C@H]1C[C@H]2[C@@H]([C@H](OC(C)=O)C[C@@H]3CC4(CC[C@@]32C)OOC2(CCCCC2)OO4)[C@@H]2CC[C@H]([C@H](C)CCCN=[N+]=[N-])[C@@]12C`, the figures for the IC50 with Plasmodium falciparum [1], in the data set on Plasmodium falciparum [2] and in the data set on Plasmodium falciparum [3] were 8.6 nM, 6.3 nM and 13.9 nM, respectively. The results for the IC90 in the data set with Plasmodium falciparum [1], in the data set on Plasmodium falciparum [2] and in the data set on Plasmodium falciparum [3] were 13.3 nM, 21.6 nM and 20.6 nM, respectively.
With `CC(=O)O[C@H]1C[C@H]2[C@@H]([C@H](OC(C)=O)C[C@@H]3CC4(CC[C@@]32C)OOC2(CCCCC2)OO4)[C@@H]2CC[C@H]([C@H](C)CCC(=O)O)[C@@]12C`, the IC50 stood at 30.6 nM in the data set with Plasmodium falciparum [1] and 19.2 nM with Plasmodium falciparum [2].
Turning to `CC(=O)O[C@H]1C[C@H]2[C@@H]([C@H](OC(C)=O)C[C@@H]3CC4(CC[C@@]32C)OOC2(CCCCC2)OO4)[C@@H]2CC[C@H]([C@H](C)CCCNCCN(C)C)[C@@]12C`, the half-life in data set [4] and in [5] was above 60 min throughout. In addition, the IC50 in the data set with Plasmodium falciparum [1] was 46.8 nM; with Plasmodium falciparum [2], 18.5 nM; in the data set with Plasmodium falciparum [3], 49.7 nM. For the same compound, the IC90 in the data set on Plasmodium falciparum [1] turned out to be 110 nM; with Plasmodium falciparum [2] it was 65.4 nM; with Plasmodium falciparum [3], 88.1 nM.
On to `c1ccc(CNCC2CCC3(CC2)OOC2(CCCCC2)OO3)cc1`, for which the figures for the half-life in [4] and in [5] were 42 min and 3.5 min, respectively. Besides, the IC50 with Plasmodium falciparum [1] is 13.8 nM; with Plasmodium falciparum [2], 8.19 nM; in the data set on Plasmodium falciparum [3], 13.9 nM. Further, the IC90 stood at 34.5 nM with Plasmodium falciparum [1], 20.6 nM in the data set with Plasmodium falciparum [2] and 39.5 nM in the data set with Plasmodium falciparum [3].
On to `NC(=O)C1CCC2(CC1)OOC1(CCCCC1)OO2`, for which the IC50 with Plasmodium falciparum [1] is 24 nM; with Plasmodium falciparum [2], 20.2 nM; with Plasmodium falciparum [3] it was 27.2 nM. In addition, the IC90 in the data set on Plasmodium falciparum [1] amounted to 42.8 nM; with Plasmodium falciparum [2], 40.4 nM; with Plasmodium falciparum [3] it was 55.6 nM.
On to `O[C@@H](c1cc(C(F)(F)F)nc2c(C(F)(F)F)cccc12)[C@H]1CCCCN1` [MEFLOQUINE], for which the IC50 was determined as 7.34 nM with Plasmodium falciparum [1] and 22.4 nM with Plasmodium falciparum [3]. Further, the IC90 turned out to be 19.5 nM in the data set on Plasmodium falciparum [1], 9.45 nM in the data set on Plasmodium falciparum [2] and 50.1 nM with Plasmodium falciparum [3].
Regarding `CCCNC(=O)C1CCC2(CC1)OOC1(CCCCC1)OO2`, the IC50 turned out to be 19.3 nM in the data set with Plasmodium falciparum [1], 22 nM in the data set on Plasmodium falciparum [2] and 25.3 nM with Plasmodium falciparum [3]. Moreover, the IC90 in the data set on Plasmodium falciparum [1] is 49.2 nM; with Plasmodium falciparum [2] it was 44.5 nM; with Plasmodium falciparum [3], 53.9 nM.
Regarding `CCCNCCC[C@@H](C)[C@H]1CC[C@H]2[C@@H]3[C@H](OC(C)=O)C[C@@H]4CC5(CC[C@]4(C)[C@H]3C[C@H](OC(C)=O)[C@]12C)OOC1(CCCCC1)OO5`, the half-life in [4] and in [5] was above 60 min in each case. Also, the IC50 in the data set with Plasmodium falciparum [1] was determined as 24.1 nM; in the data set on Plasmodium falciparum [2], 11.1 nM; in the data set on Plasmodium falciparum [3] it was 20.8 nM. The IC90 is 49.3 nM in the data set on Plasmodium falciparum [1], 26.9 nM in the data set on Plasmodium falciparum [2] and 73.9 nM with Plasmodium falciparum [3].
Consider `CCN(CC)CCCC(C)Nc1ccnc2cc(Cl)ccc12` (configuration not stated) [CHLOROQUINE], for which the figures for the IC90 with Plasmodium falciparum [1], in the data set on Plasmodium falciparum [2] and in the data set with Plasmodium falciparum [3] were 17.6 nM, 1020 nM and 345 nM, respectively.
With `O=C(O)C1CCC2(CC1)OOC1(CCCCC1)OO2`, the IC50 was found to be 429 nM in the data set with Plasmodium falciparum [1], 413 nM in the data set with Plasmodium falciparum [2] and 411 nM in the data set with Plasmodium falciparum [3]. Further, the values for the IC90 with Plasmodium falciparum [1], in the data set with Plasmodium falciparum [2] and with Plasmodium falciparum [3] were 467 nM, 520 nM and 523 nM, respectively.
`OCC1CCC2(CC1)OOC1(CCCCC1)OO2`: the results for the IC50 with Plasmodium falciparum [1], in the data set with Plasmodium falciparum [2] and in the data set on Plasmodium falciparum [3] were 15.2 nM, 6.54 nM and 12.6 nM, respectively. Also, the IC90 with Plasmodium falciparum [1] was found to be 22.5 nM; in the data set on Plasmodium falciparum [2] it was 11.6 nM; in the data set on Plasmodium falciparum [3] it was 23.7 nM.
